Measured values published in article PMC12095047, “Transport of phenoxyacetic acid herbicides by PIN-FORMED auxin transporters” (Nature Plants, 2025).
Where “and” joins values, the source holds several entries; their conditions need not be identical. Equal values may be shown once. Read-outs that look alike come from different tables or passages of the source.

Experiments:
PIN8 = target: T1, PIN8 (Arabidopsis thaliana, UniProt Q9LFP6); assay: SSM electrophysiology, KD by inhibition of the NPA binding current
T1 construct: made in house
T1 sequence (Q9LFP6 1-367): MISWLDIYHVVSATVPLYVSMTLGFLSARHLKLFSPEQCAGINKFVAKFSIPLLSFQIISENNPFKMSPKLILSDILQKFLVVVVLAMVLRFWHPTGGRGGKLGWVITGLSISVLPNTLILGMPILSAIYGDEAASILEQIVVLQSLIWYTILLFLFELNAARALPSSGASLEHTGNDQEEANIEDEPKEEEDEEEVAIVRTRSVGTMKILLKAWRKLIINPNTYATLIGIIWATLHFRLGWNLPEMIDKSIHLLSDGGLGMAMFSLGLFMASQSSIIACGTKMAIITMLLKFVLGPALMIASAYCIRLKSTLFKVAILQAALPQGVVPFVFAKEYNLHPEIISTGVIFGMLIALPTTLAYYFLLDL
Protocol: (§1) SSM, using a SURFE2R N1 from Nanion Technologies, was conducted as described. In brief, soy polar lipid mix (38% phosphatidyl choline, 30% phosphatidyl ethanolamine, 18% phosphatidyl inositol, 7% phosphatidic acid and 7% other soy lipids) and 1-palmitoyl-2-oleoyl-sn-glycero-3-phosphocholin were purchased from Avanti. Liposomes were prepared in Ringer solution without Ca^2+ (115 mM NaCl, 2.5 mM KCl, 1 mM NaHCO3, 10 mM HEPES pH7.4, 1 mM MgCl2) and homogenized using a Lipsofast (Avestin) with a […]. Triton X-100 was added to the liposomes to a final concentration of 1% (v/v). Protein was added to liposomes to a calculated lipid-to-protein ratio (LPR) of 10 unless stated otherwise. The detergent was removed using 400 mg ml^−1 Bio Beads (BioRad) overnight at 4 °C in a rotary shaker. Proteoliposomes were frozen in liquid nitrogen and kept at −80 °C until use. Proteoliposomes were diluted 1:5 in Ringer solution without Ca^2+, sonicated five times and then applied to the sensors by centrifugation (30 min, 3,000 g, 4 °C). Non-activating buffer was Ringer solution without Ca^2+ as described unless specified otherwise, and activating buffer contained the substrate of interest. In most instances we used a single-solution exchange experiment. In this case proteoliposomes, immobilized on the supported membrane, are kept in non-activating buffer as specified. At the beginning of the experiment the non-activating buffer is replaced with fresh identical non-activating buffer, and after 1 s, activating buffer (same buffer containing substrate) is added. After another second, the buffer is replaced with non-activating buffer again. Current response is recorded throughout the entire 3 s. For competition or inhibition, the respective compound was present in non-activating and activating solutions. Each experiment was performed on at least two individual sensors. On each sensor each measurement consists of three technical replicates where the mean is calculated. KD values were determined as described previously. Briefly, the binding current induced by 100 µM NPA was recorded in the presence of different concentrations of the substrate under investigation ranging between 0 µM and 1,000 µM present in the activating solution and the non-activating solution (Extended Data Fig. 5b). […] The maximum peak current was then plotted as a function of the concentration of the substrate under investigation and plotted against the degree of inhibition and fitted with a one-site binding model using GraphPad Prism V10.4.1 The half maximal concentration corresponds to the KD of the substrate under investigation.

PIN8 S266A = target: T2, PIN8 S266A (Arabidopsis thaliana, UniProt Q9LFP6, S266A); type: biochemical; conditions: PIN8 S266A, Michaelis–Menten fit
T2 construct: made in house
Protocol: as §1
(§2) The protocol for expression and purification of AtPIN8 protein (Uniprot: Q9LFP6) in lauryl maltose neopentyl glycol was described previously. All point mutants were generated using Q5 Site-Directed mutagenesis kit (New England Biolabs). The C-flat Holey Carbon grids (CF-1.2/1.3, Cu-300 mesh) were glow-discharged for 45 s at 15 mA in a GloQube Plus (Quorum). […] After 1 h of incubation on ice, the sample was centrifuged at 16,000 g for 15 min before blotting to remove precipitation. A drop of 4 µl of each sample was applied to the glow-discharged grids, blotted with a Vitrobot Mark IV (ThermoFisher Scientific) using the following settings (temperature 4 °C, 100% humidity, blot time of 4 s, blot force −1) and vitrified in liquid ethane.

PIN8 S55A = target: T3, PIN8 S55A (Arabidopsis thaliana, UniProt Q9LFP6, S55A); type: biochemical; conditions: for Peak current: S55A, individual sensors
T3 construct: made in house
Protocol: as §1, §2

PIN8 Y150F = target: T4, PIN8 Y150F (Arabidopsis thaliana, UniProt Q9LFP6, Y150F); type: biochemical; conditions: PIN8 Y150F, Michaelis–Menten fit
T4 construct: made in house
Protocol: as §1, §2

PIN8 N223A = target: T5, PIN8 N223A (Arabidopsis thaliana, UniProt Q9LFP6, N223A); type: biochemical; conditions: N223A
T5 construct: made in house
Protocol: as §1, §2

PIN8 S146A = target: T6, PIN8 S146A (Arabidopsis thaliana, UniProt Q9LFP6, S146A); type: biochemical; conditions: for Peak current: S146A, individual sensors
T6 construct: made in house
Protocol: as §1, §2

PIN8 I51Y = target: T7, PIN8 I51Y (Arabidopsis thaliana, UniProt Q9LFP6, I51Y); type: biochemical; conditions: Michaelis–Menten fit
T7 construct: made in house
Protocol: as §1, §2

A. thaliana PIN8 = target: T8, A. thaliana PIN8 (Arabidopsis thaliana, UniProt Q9LFP6); assay: SSM electrophysiology, peak current response on PIN8 proteoliposomes; type: biochemical; conditions: for Peak current: individual sensors
T8 construct: made in house
T8 sequence (Q9LFP6 1-367): T1 sequence (Q9LFP6 1-367)
Protocol: as §1

[1] = read-out: EC50 of peak current response
[2] = WT PIN8 proteoliposomes, Michaelis–Menten fit

T3 sequence (Q9LFP6 whole entry S55A): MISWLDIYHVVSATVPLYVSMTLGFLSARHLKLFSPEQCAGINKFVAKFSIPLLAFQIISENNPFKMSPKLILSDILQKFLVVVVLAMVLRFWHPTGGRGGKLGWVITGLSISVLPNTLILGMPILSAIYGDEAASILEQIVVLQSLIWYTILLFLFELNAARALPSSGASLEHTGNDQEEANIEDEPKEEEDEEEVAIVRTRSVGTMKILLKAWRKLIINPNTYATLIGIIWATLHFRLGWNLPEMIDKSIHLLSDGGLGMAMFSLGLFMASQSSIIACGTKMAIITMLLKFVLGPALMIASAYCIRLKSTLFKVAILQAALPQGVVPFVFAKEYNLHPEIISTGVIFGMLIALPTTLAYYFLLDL
T6 sequence (Q9LFP6 whole entry S146A): as the sequence (Q9LFP6 whole entry S55A) above, with A55S, S146A counted along it
T7 sequence (Q9LFP6 whole entry I51Y): as the sequence (Q9LFP6 whole entry S55A) above, with I51Y, A55S counted along it
T4 sequence (Q9LFP6 whole entry Y150F): as the sequence (Q9LFP6 whole entry S55A) above, with A55S, Y150F counted along it
T2 sequence (Q9LFP6 whole entry S266A): as the sequence (Q9LFP6 whole entry S55A) above, with A55S, S266A counted along it
T5 sequence (Q9LFP6 whole entry N223A): as the sequence (Q9LFP6 whole entry S55A) above, with A55S, N223A counted along it

SMILES: O=C(O)COc1ccc(Cl)cc1 [4-CPA, 4-chlorophenoxyacetic acid]
- inhibition at 5 µM (PIN8; 5 µM substrate, 100 µM NPA, individual sensors, read-out: Rel. Inhibition of NPA peak currents): 3.03%
- inhibition at 20 µM (PIN8; 20 µM substrate, 100 µM NPA, individual sensors, read-out: Rel. Inhibition of NPA peak currents): 9.7%
- inhibition at 50 µM (PIN8; 50 µM substrate, 100 µM NPA, individual sensors, read-out: Rel. Inhibition of NPA peak currents): 16%
- inhibition at 100 µM (PIN8; 100 µM substrate, 100 µM NPA, individual sensors, read-out: Rel. Inhibition of NPA peak currents): 24.7%
- inhibition at 500 µM (PIN8; 500 µM substrate, 100 µM NPA, individual sensors, read-out: Rel. Inhibition of NPA peak currents): 58.6%
- inhibition at 1000 µM (PIN8; 1000 µM substrate, 100 µM NPA, individual sensors, read-out: Rel. Inhibition of NPA peak currents): 73.5%
- inhibition at 2000 µM (PIN8; 2000 µM substrate, 100 µM NPA, individual sensors, read-out: Rel. Inhibition of NPA peak currents): 82.1%
- inhibition at 5000 µM (PIN8; 5000 µM substrate, 100 µM NPA, individual sensors, read-out: Rel. Inhibition of NPA peak currents): 96.6%
- lower binding affinity compared to IAA (PIN8; KD compared to IAA): ~ 8 fold
- Kd (PIN8; Peak current, sheet F2A (Fig. 2a, KD of substrate binding), individual sensors): 319 µM and 330 µM and 262 µM
- Imax (PIN8 S266A): 7 ± 2 nA
- EC50 (PIN8 S266A; [1]): 2100 ± 290 µM
- Imax (PIN8 S55A; PIN8 S55A, Michaelis–Menten fit): 11 ± 1 nA
- EC50 (PIN8 S55A; PIN8 S55A, Michaelis–Menten fit, read-out: EC50 of peak current response): 328 ± 15 µM
- Peak current (PIN8 S55A; 5 µM substrate): 0.2701 nA and 0.2897 nA and 0.3406 nA
- Peak current (PIN8 S55A; 20 µM substrate): 0.9459 nA and 0.8941 nA and 1.017 nA
- Peak current (PIN8 S55A; 50 µM substrate): 1.817 nA and 1.664 nA and 1.992 nA
- Peak current (PIN8 S55A; 100 µM substrate): 2.935 nA and 2.612 nA and 3.1231 nA
- Peak current (PIN8 S55A; 500 µM substrate): 6.5808 nA and 5.777 nA and 6.881 nA
- Peak current (PIN8 S55A; 1000 µM substrate): 8.474 nA and 7.36 nA and 8.719 nA
- Peak current (PIN8 S55A; 2000 µM substrate): 10.4298 nA and 8.998 nA and 10.8546 nA
- Imax (PIN8 Y150F): 5 ± 0.9 nA
- EC50 (PIN8 Y150F; [1]): 710 ± 228 µM
- fold-change difference to the respective EC50 of wildtype PIN8 (PIN8 N223A): completely abolishes binding
- Imax (PIN8 S146A; PIN8 S146A, Michaelis–Menten fit): 8 ± 2 nA
- Peak current (PIN8 S146A; 5 µM substrate): 0.16 nA and 0.306 nA and 0.183 nA and 0.211 nA
- Peak current (PIN8 S146A; 20 µM substrate): 0.62 nA and 0.288 nA and 0.616 nA
- Peak current (PIN8 S146A; 50 µM substrate): 1.139 nA and 1.066 nA and 1.161 nA and 1.319 nA
- Peak current (PIN8 S146A; 100 µM substrate): 1.866 nA and 1.352 nA and 1.859 nA and 2.228 nA
- Peak current (PIN8 S146A; 500 µM substrate): 4.245 nA and 2.76 nA and 4.229 nA and 5.107 nA
- Peak current (PIN8 S146A; 1000 µM substrate): 5.47 nA and 3.518 nA and 5.371 nA and 6.513 nA
- Peak current (PIN8 S146A; 2000 µM substrate): 6.809 nA and 4.912 nA and 6.602 nA and 8.134 nA
- Imax (PIN8 I51Y): 3 ± 0.8 nA
- EC50 (PIN8 I51Y; [1]): 1040 ± 252 µM
- Peak current (A. thaliana PIN8; 2 mM 4-CPA, absence of NPA): 6.735 nA and 9.149 nA
- Peak current (A. thaliana PIN8; 2 mM 4-CPA, presence of 20 µM NPA): 3.357 nA
- EC50 (A. thaliana PIN8; [2]): 800 ± 200 µM
- maximal current Imax (A. thaliana PIN8; [2]): 12 ± 2 nA
- Peak current (A. thaliana PIN8; WT, 5 µM substrate): 0.07132 nA and 0.09263 nA and 0.01805 nA
- Peak current (A. thaliana PIN8; WT, 20 µM substrate): 0.2459 nA and 0.3985 nA and 0.3482 nA
- Peak current (A. thaliana PIN8; WT, 50 µM substrate): 0.634 nA and 0.9337 nA and 0.8708 nA
- Peak current (A. thaliana PIN8; WT, 100 µM substrate): 1.233 nA and 1.738 nA and 1.591 nA
- Peak current (A. thaliana PIN8; WT, 500 µM substrate): 3.698 nA and 5.58 nA and 4.779 nA
- Peak current (A. thaliana PIN8; WT, 1000 µM substrate): 5.355 nA and 8.269 nA and 6.9634 nA
- Peak current (A. thaliana PIN8; WT, 2000 µM substrate): 7.157 nA and 9.571 nA and 9.556 nA
